Values joined by “and” are separate entries in the source; they are usually repeats but may differ in a detail not shown here. Equal values may be shown once. Toxic doses and inconclusive results are not listed.
Tested on: L1210 leukemia ip in BDF1 mice, survival T/C
Assay: NCI In Vivo Anticancer Drug Screen. Data for tumor model L1210 Leukemia (intraperitoneal) in B6D2F1 (BDF1) mice
Conditions: endpoint: mean survival time, higher = longer survival
Summary of the method: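 In this screen, tumor-bearing mice given compound are compared to those given vehicle, and their survival values are reported as a treated-to-control quotient.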

[1] = dose: 100.0 mg/kg/injection, schedule: Q01DX009 (ip), vehicle: Klucel (hydroxypropylcellulose) (HPC)
[2] = dose: 200.0 mg/kg/injection, schedule: Q01DX009 (ip), vehicle: Klucel (hydroxypropylcellulose) (HPC)
[3] = dose: 400.0 mg/kg/injection, schedule: Q01DX009 (ip), vehicle: Klucel (hydroxypropylcellulose) (HPC)
[4] = dose: 12.5 mg/kg/injection, schedule: Q01DX009 (ip), vehicle: Klucel (hydroxypropylcellulose) (HPC)
[5] = dose: 100.0 mg/kg/injection, schedule: Q04DX003 (ip), vehicle: saline
[6] = dose: 50.0 mg/kg/injection, schedule: Q01DX001 (ip), vehicle: saline
[7] = dose: 100.0 mg/kg/injection, schedule: Q01DX001 (ip), vehicle: saline
[8] = dose: 200.0 mg/kg/injection, schedule: Q01DX001 (ip), vehicle: saline
[9] = dose: 100.0 mg/kg/injection, schedule: Q04DX003 (ip), vehicle: Klucel (hydroxypropylcellulose) (HPC)
[10] = dose: 200.0 mg/kg/injection, schedule: Q04DX003 (ip), vehicle: Klucel (hydroxypropylcellulose) (HPC)
[11] = dose: 400.0 mg/kg/injection, schedule: Q04DX003 (ip), vehicle: Klucel (hydroxypropylcellulose) (HPC)

NC(CSSc1ccccc1)=NCC12CC3CC(CC(C3)C1)C2
T/C (dose: 10.0 mg/kg/injection, schedule: Q01DX001 (ip), vehicle: carboxymethylcellulose (CMC)): 96 % of control | T/C (dose: 20.0 mg/kg/injection, schedule: Q01DX001 (ip), vehicle: carboxymethylcellulose (CMC)): 98 % of control

CC(C)(C)N=C1OC(=O)c2ccccc21
T/C (dose: 100.0 mg/kg/injection, schedule: Q01DX009 (ip), vehicle: saline with Tween-80): 107 % of control | T/C (dose: 200.0 mg/kg/injection, schedule: Q01DX009 (ip), vehicle: saline with Tween-80): 98 % of control | T/C (dose: 400.0 mg/kg/injection, schedule: Q01DX009 (ip), vehicle: saline with Tween-80): 94 % of control

O=C(NC1CCCCC1)N(C1CCCCC1)C1CCCCC1
T/C [1]: 90 % of control | T/C [2]: 103 % of control | T/C [3]: 92 % of control

Cn1c2ccccc2[n+]2c(N)scc12
T/C (dose: 12.5 mg/kg/injection, schedule: Q04DX002 (ip), vehicle: saline): 101 % of control | T/C (dose: 25.0 mg/kg/injection, schedule: Q04DX002 (ip), vehicle: saline): 115 % of control | T/C (dose: 50.0 mg/kg/injection, schedule: Q04DX002 (ip), vehicle: saline): 96 % of control and 91 % of control | T/C (dose: 100.0 mg/kg/injection, schedule: Q04DX002 (ip), vehicle: saline): 102 % of control

COc1ccc(/C=C/c2cccc[n+]2C)cc1
T/C [4]: 89 % of control | T/C (dose: 12.5 mg/kg/injection, schedule: Q04DX003 (ip), vehicle: Klucel (hydroxypropylcellulose) (HPC)): 100 % of control | T/C (dose: 25.0 mg/kg/injection, schedule: Q01DX009 (ip), vehicle: Klucel (hydroxypropylcellulose) (HPC)): 90 % of control | T/C (dose: 25.0 mg/kg/injection, schedule: Q04DX003 (ip), vehicle: Klucel (hydroxypropylcellulose) (HPC)): 94 % of control | T/C (dose: 50.0 mg/kg/injection, schedule: Q04DX003 (ip), vehicle: Klucel (hydroxypropylcellulose) (HPC)): 100 % of control

N=c1c2cnn(C3OC(CO)C(O)C3O)c2ncn1N (configuration not stated)
T/C (dose: 6.25 mg/kg/injection, schedule: Q01DX009 (ip), vehicle: water): 112 % of control | T/C (dose: 12.5 mg/kg/injection, schedule: Q01DX009 (ip), vehicle: water): 121 % of control

CN(C)C(=O)c1cc[n+](Cc2ccc(Cl)cc2)cc1
T/C [5]: 98 % of control

OCC(O)C(O)C(O)C(O)C(c1ccccc1)c1ccccc1 (configuration not stated)
T/C [6]: 107 % of control | T/C [7]: 103 % of control | T/C [8]: 101 % of control | T/C (dose: 400.0 mg/kg/injection, schedule: Q01DX001 (ip), vehicle: saline): 101 % of control

Cc1cc(=O)oc2cc(OC(=O)Nc3ccc(F)c(Cl)c3)ccc12
T/C (dose: 3.12 mg/kg/injection, schedule: Q01DX009 (ip), vehicle: Klucel (hydroxypropylcellulose) (HPC)): 102 % of control | T/C (dose: 6.25 mg/kg/injection, schedule: Q01DX009 (ip), vehicle: Klucel (hydroxypropylcellulose) (HPC)): 96 % of control | T/C [4]: 93 % of control and 92 % of control | T/C [9]: 97 % of control | T/C [10]: 100 % of control | T/C [11]: 101 % of control

CC(=O)OCC1OC(N2C(=O)/C(=C(/C)c3ccco3)SC2=S)C(OC(C)=O)C(OC(C)=O)C1OC(C)=O (configuration not stated)
T/C (dose: 25.0 mg/kg/injection, schedule: Q01DX005 (ip), vehicle: other): 103 % of control | T/C (dose: 50.0 mg/kg/injection, schedule: Q01DX005 (ip), vehicle: other): 98 % of control | T/C (dose: 100.0 mg/kg/injection, schedule: Q01DX005 (ip), vehicle: other): 98 % of control | T/C (dose: 200.0 mg/kg/injection, schedule: Q01DX005 (ip), vehicle: other): 98 % of control | T/C (dose: 400.0 mg/kg/injection, schedule: Q01DX005 (ip), vehicle: other): 101 % of control

Cc1nccc2c1[nH]c1cc(N)ccc12.[Cl][Sn][Cl]
T/C (dose: 5.0 mg/kg/injection, schedule: Q04DX003 (ip), vehicle: saline with Tween-80): 102 % of control | T/C (dose: 10.0 mg/kg/injection, schedule: Q04DX003 (ip), vehicle: saline with Tween-80): 94 % of control | T/C (dose: 20.0 mg/kg/injection, schedule: Q04DX003 (ip), vehicle: saline with Tween-80): 96 % of control

OCC1CCCN2CCCCC12 (configuration not stated)
T/C [5]: 98 % of control | T/C (dose: 200.0 mg/kg/injection, schedule: Q04DX003 (ip), vehicle: saline): 90 % of control

CCC(=O)N(C)C(=NC)c1ccc(NC(=O)c2ccc(C(=O)Nc3ccc(C(=NC)N(C)C(=O)CC)cc3)cc2)cc1
T/C (dose: 75.0 mg/kg/injection, schedule: Q01DX015 (ip), vehicle: carboxymethylcellulose (CMC)): 90 % of control | T/C (dose: 100.0 mg/kg/injection, schedule: Q01DX015 (ip), vehicle: carboxymethylcellulose (CMC)): 91 % of control | T/C (dose: 150.0 mg/kg/injection, schedule: Q01DX015 (ip), vehicle: carboxymethylcellulose (CMC)): 90 % of control | T/C (dose: 200.0 mg/kg/injection, schedule: Q01DX015 (ip), vehicle: carboxymethylcellulose (CMC)): 97 % of control

Cc1nc(Cl)cc(Cl)n1
T/C [9]: 90 % of control | T/C [10]: 90 % of control | T/C [11]: 97 % of control

CN(C)c1ccccc1CN1CCCN(Cc2ccccc2N(C)C)C1c1ccncc1
T/C (dose: 6.0 mg/kg/injection, schedule: Q12HX018 (ip), vehicle: other): 96 % of control | T/C (dose: 12.0 mg/kg/injection, schedule: Q12HX018 (ip), vehicle: other): 103 % of control | T/C (dose: 24.0 mg/kg/injection, schedule: Q12HX018 (ip), vehicle: other): 101 % of control

CCOC(=O)C(=CNc1cccc(N)n1)C(=O)OCC
T/C [9]: 95 % of control | T/C [10]: 97 % of control | T/C [11]: 92 % of control

CCN(CC)CCN(C)C(=O)C(=O)c1ccccc1
T/C (dose: 75.0 mg/kg/injection, schedule: Q01DX001 (ip), vehicle: saline): 98 % of control | T/C (dose: 150.0 mg/kg/injection, schedule: Q01DX001 (ip), vehicle: saline): 101 % of control

C[Si](C)(C#CC1(O)CCCCC1)C(Cl)Cl
T/C [9]: 102 % of control | T/C [10]: 101 % of control | T/C [11]: 109 % of control

CCCCCC(CN(C)C)C(O)CCc1ccc(Cl)c(Cl)c1 (configuration not stated)
T/C (dose: 25.0 mg/kg/injection, schedule: Q04DX002 (ip), vehicle: Klucel (hydroxypropylcellulose) (HPC)): 93 % of control | T/C (dose: 50.0 mg/kg/injection, schedule: Q04DX002 (ip), vehicle: Klucel (hydroxypropylcellulose) (HPC)): 93 % of control | T/C (dose: 100.0 mg/kg/injection, schedule: Q04DX002 (ip), vehicle: Klucel (hydroxypropylcellulose) (HPC)): 104 % of control | T/C (dose: 200.0 mg/kg/injection, schedule: Q04DX002 (ip), vehicle: Klucel (hydroxypropylcellulose) (HPC)): 88 % of control | T/C (dose: 400.0 mg/kg/injection, schedule: Q04DX002 (ip), vehicle: Klucel (hydroxypropylcellulose) (HPC)): 117 % of control

Cc1cccc(Cl)c1NC(=O)Nc1onc(C)c1C
T/C [1]: 103 % of control | T/C [2]: 100 % of control | T/C [3]: 92 % of control

N#C/C(=C/c1ccncc1)C(N)=O
T/C (dose: 100.0 mg/kg/injection, schedule: Q04DX003 (ip), vehicle: saline with Tween-80): 98 % of control | T/C (dose: 200.0 mg/kg/injection, schedule: Q04DX003 (ip), vehicle: saline with Tween-80): 94 % of control | T/C (dose: 400.0 mg/kg/injection, schedule: Q04DX003 (ip), vehicle: saline with Tween-80): 99 % of control

CSc1cc2c(c(SC)c1[N+](=O)[O-])C(=O)c1ccccc1-2
T/C (dose: 100.0 mg/kg/injection, schedule: Q01DX001 (ip), vehicle: carboxymethylcellulose (CMC)): 102 % of control | T/C (dose: 200.0 mg/kg/injection, schedule: Q01DX001 (ip), vehicle: carboxymethylcellulose (CMC)): 98 % of control | T/C (dose: 400.0 mg/kg/injection, schedule: Q01DX001 (ip), vehicle: carboxymethylcellulose (CMC)): 102 % of control

O=C1c2cc(Br)ccc2-c2ccc(Br)cc21
T/C [6]: 90 % of control | T/C [7]: 100 % of control | T/C [8]: 90 % of control

O=C(Nc1ccc(NC2=NCCN2)cc1)c1cccc(C(=O)Nc2ccc(NC3=NCCN3)cc2)c1
T/C (dose: 3.75 mg/kg/injection, schedule: Q01DX Z (ip), vehicle: methylcellulose (MC)): 100 % of control | T/C (dose: 7.5 mg/kg/injection, schedule: Q01DX Z (ip), vehicle: methylcellulose (MC)): 104 % of control | T/C (dose: 15.0 mg/kg/injection, schedule: Q01DX Z (ip), vehicle: methylcellulose (MC)): 116 % of control | T/C (dose: 30.0 mg/kg/injection, schedule: Q01DX Z (ip), vehicle: methylcellulose (MC)): 161 % of control

CC1(C)C2CC1C(O)(C(=O)O)C2 (configuration not stated)
T/C (dose: 75.0 mg/kg/injection, schedule: Q01DX001 (ip), vehicle: acetone): 94 % of control | T/C (dose: 150.0 mg/kg/injection, schedule: Q01DX001 (ip), vehicle: acetone): 97 % of control | T/C (dose: 300.0 mg/kg/injection, schedule: Q01DX001 (ip), vehicle: acetone): 96 % of control
